# Experimental data as given in patent US20200317660A1, “Quinazolinone Compound and Application Thereof” (LUOXIN PHARMACEUTICAL (SHANGHAI) CO., LTD., priority 2017, published 2020).
# Key:
# [1] = test system: human ovarian cancer SK-OV-3 cells; assay: Subcutaneous xenograft tumor model of human ovarian cancer SK-OV-3 cells; type: in vivo, BALB/c nude mouse; conditions: SK-OV-3 xenograft, 30 mpk
# Method: (2) BALB/c nude mouse subcutaneous xenograft tumor model of human ovarian cancer SK-OV-3 cells
# Human ovarian cancer SK-OV-3 cells (ECACC-91091004) were subjected to in vitro monolayer culture, and the culture conditions were: McCoy's 5a medium (Gibco, 16600-082) with 10% fetal bovine serum and 100 U/mL penicillin and 100 µg/mL streptomycin, 37° C. and 5% CO2 incubator. The cells were passaged by digestion with trypsin-EDTA twice a week. When the cells saturation reached 80%-90%, the cells were collected, counted, and inoculated.
# 0.2 mL of 10×10^6 SK-OV-3 cells were subcutaneously inoculated into the right back of each nude mouse (PBS:Matrigel=1:1). When the average tumor volume reached 200 mm^3, 48 tumor-bearing mice were divided into 8 groups by stratified random method with 6 mice in each group, which were administered on the day of grouping.
# Preparation of Test Substance
# Vehicle group: 2.0 g of methyl cellulose was weighed in a 500 mL glass bottle, followed by addition of 399.2 mL of ddH2O and 0.8 mL of Tween 80. […]
# The experimental index was to evaluate whether the tumor growth was inhibited, delayed or cured. The diameter of the tumor was measured with a vernier caliper twice a week. […]
# The antitumor efficacy of the compound was evaluated by TGI (%) or relative tumor proliferation rate T/C (%). […]
# [2] = test system: phosphorylation of PI3K downstream protein Akt in MCF7 cells; assay: In vitro test of cells activity: ELISA of Akt phosphorylation in MCF7 cells; type: cell-based; conditions: Homo sapiens, MCF7, 2 h, 2 h compound, insulin 10 μg/mL stimulation, pAkt ELISA, read-out: MCF7 Cell IC50
# How it was run: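 MCF7 cells were serum-starved overnight, exposed to 10-point three-fold compound dilutions for 2 h at 37°C, then stimulated with 10 μg/mL insulin for 30 min. Lysates were assayed for phospho-Akt by ELISA.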
compound,measurement,setting,value
CNC(=O)CCCn1cnc2ccc(-c3cnc(OC)c(NS(=O)(=O)c4ccc(F)cc4Cl)c3)cc2c1=O [WX198],TGI %,[1],62.6%
same,IC50,[2],9.43 nM
